Measurements: patent publication US10131652B2, “Pyrimidinyloxy benzene derivatives as herbicides” (E. I. DU PONT DE NEMOURS AND COMPANY, priority 2014, dated 2018)

Key:
Assay type in all cases: in vivo
[1] = test system: barnyardgrass (Echinochloa crus-galli); assay: Test B pre-/postemergence plant response
Summary of the method: (§1)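 Steps: plant seeds in loam soil–sand mix; spray soil preemergence, and in parallel spray 2–10 cm one- to two-leaf plants postemergence; hold ~10 days in greenhouse; visually rate injury against untreated controls (0 = no effect, 100 = complete control).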

corn (Zea mays) [2] = assay: Test B pre-/postemergence plant response
Summary of the method: as §1

[3] = test system: giant foxtail (Setaria faberii); assay: Test B pre-/postemergence plant response
Summary of the method: as §1

[4] = test system: pigweed (Amaranthus retroflexus); assay: Test B pre-/postemergence plant response
Summary of the method: as §1

[5] = test system: wheat (Triticum aestivum); assay: Test B pre-/postemergence plant response
Summary of the method: as §1

[6] = test system: Italian ryegrass (Lolium multiflorum); assay: Test D pre-/postemergence plant response
Summary of the method: (§2)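 0 = no effect, 100 = complete control: plants were scored this way by visual comparison with controls 13 to 15 days post-treatment. Application was preemergence to sown loam/sand pots or postemergence to 2–18 cm seedlings in peat-based mix.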

corn (Zea mays) [7] = assay: Test D pre-/postemergence plant response
Summary of the method: as §2

[8] = test system: galium (catchweed bedstraw, Galium aparine); assay: Test D pre-/postemergence plant response
Summary of the method: as §2

[9] = test system: lambsquarters (Chenopodium album); assay: Test D pre-/postemergence plant response
Summary of the method: as §2

[10] = test system: large (Lg) crabgrass (Digitaria sanguinalis); assay: Test D pre-/postemergence plant response
Summary of the method: as §2

[11] = test system: morningglory (Ipomoea coccinea); assay: Test D pre-/postemergence plant response
Summary of the method: as §2

[12] = test system: ragweed (common ragweed, Ambrosia elatior); assay: Test D pre-/postemergence plant response
Summary of the method: as §2

soybean (Glycine max) = assay: Test D pre-/postemergence plant response
Summary of the method: as §2

[13] = test system: waterhemp (common waterhemp, Amaranthus rudis); assay: Test D pre-/postemergence plant response
Summary of the method: as §2

[14] = test system: winter wheat (Triticum aestivum); assay: Test D pre-/postemergence plant response
Summary of the method: as §2

[15] = test system: yellow nutsedge (Cyperus esculentus); assay: Test D pre-/postemergence plant response
Summary of the method: as §2

[16] = 31 g ai/ha, Preemergence, 0 to 100 scale where 0 is no effect and 100 is complete control
[17] = 125 g ai/ha, postemergence, 0 to 100 scale, 0 no effect, 100 complete control
[18] = Postemergence, 31 g ai/ha, 0 to 100 scale (0 no effect, 100 complete control)
[19] = Preemergence, 125 g ai/ha, 0 to 100 scale (0 no effect, 100 complete control)
[20] = Postemergence, 31 g ai/ha, scale 0 to 100 (0 no effect, 100 complete control)
[21] = Postemergence, 62 g ai/ha, scale 0 to 100, 0 no effect, 100 complete control
[22] = Postemergence, 125 g ai/ha, scale 0 to 100, 0 no effect, 100 complete control
[23] = Preemergence, 16 g ai/ha, scale 0 to 100 (0 no effect, 100 complete control)
[24] = Preemergence, 31 g ai/ha, scale 0 to 100 (0 no effect, 100 complete control)
[25] = Preemergence, 62 g ai/ha, scale 0 to 100 (0 no effect, 100 complete control)

Cc1cc(-c2c(F)cccc2Oc2ncc(Cl)cn2)on1 [Compound 229]
Plant response rating, Barnyardgrass [1, 16]: 50
Plant response rating, Barnyardgrass [1, 17]: 70
Plant response rating, Barnyardgrass [1, 18]: 20
Barnyardgrass plant response rating [1, 19]: 90
Plant response rating, Corn (corn (Zea mays) [2]; [17]): 30
Plant response rating, Corn (corn (Zea mays) [2]; [18]): 0
Plant response rating, Foxtail, Giant [3, 16]: 90
Plant response rating, Foxtail, Giant [3, 17]: 80
Plant response rating, Foxtail, Giant [3, 18]: 50
Foxtail, Giant plant response rating [3, 19]: 90
Plant response rating, Pigweed [4, 16]: 100
Plant response rating, Pigweed [4, 17]: 100
Plant response rating, Pigweed [4, 18]: 70
Pigweed plant response rating [4, 19]: 100
Plant response rating, Wheat [5, 17]: 40
Plant response rating, Wheat [5, 18]: 0
Plant response rating (scale 0 to 100), Ryegrass, Italian ([6]; Postemergence, 16 g ai/ha): 0
Ryegrass, Italian plant response rating [6, 20]: 0
Ryegrass, Italian plant response rating [6, 21]: 0
Plant response rating, Ryegrass, Italian [6, 22]: 5
Plant response rating (scale 0 to 100), Ryegrass, Italian ([6]; Preemergence, 125 g ai/ha): 60
Plant response rating, Ryegrass, Italian [6, 23]: 0
Plant response rating, Ryegrass, Italian [6, 24]: 20
Plant response rating, Ryegrass, Italian [6, 25]: 20
Plant response rating (scale 0 to 100), Corn (corn (Zea mays) [7]; Postemergence, 16 g ai/ha): 5
Corn plant response rating (corn (Zea mays) [7]; [20]): 20
Plant response rating, Corn (corn (Zea mays) [7]; [21]): 5
Plant response rating, Corn (corn (Zea mays) [7]; [22]): 5
Plant response rating (scale 0 to 100), Corn (corn (Zea mays) [7]; Preemergence, 125 g ai/ha): 40
Plant response rating, Corn (corn (Zea mays) [7]; [23]): 0
Plant response rating, Corn (corn (Zea mays) [7]; [24]): 5
Plant response rating, Corn (corn (Zea mays) [7]; [25]): 5
Plant response rating (scale 0 to 100), Galium ([8]; Postemergence, 16 g ai/ha): 70
Galium plant response rating [8, 20]: 70
Plant response rating, Galium [8, 21]: 65
Plant response rating, Galium [8, 22]: 80
Plant response rating (scale 0 to 100), Galium ([8]; Preemergence, 125 g ai/ha): 98
Plant response rating, Galium [8, 23]: 40
Plant response rating, Galium [8, 24]: 80
Plant response rating, Galium [8, 25]: 98
Plant response rating (scale 0 to 100), Lambsquarters ([9]; Postemergence, 16 g ai/ha): 60
Lambsquarters plant response rating [9, 20]: 70
Lambsquarters plant response rating [9, 21]: 70
Plant response rating, Lambsquarters [9, 22]: 85
Plant response rating (scale 0 to 100), Lambsquarters ([9]; Preemergence, 125 g ai/ha): 95
Plant response rating, Lambsquarters [9, 23]: 35
Plant response rating, Lambsquarters [9, 24]: 80
Plant response rating, Lambsquarters [9, 25]: 80
Plant response rating (scale 0 to 100), Crabgrass, Large ([10]; Postemergence, 16 g ai/ha): 0
Crabgrass, Large plant response rating [10, 20]: 0
Plant response rating, Crabgrass, Large [10, 21]: 5
Plant response rating, Crabgrass, Large [10, 22]: 5
Plant response rating (scale 0 to 100), Crabgrass, Large ([10]; Preemergence, 125 g ai/ha): 100
Plant response rating, Crabgrass, Large [10, 23]: 75
Plant response rating, Crabgrass, Large [10, 24]: 85
Plant response rating, Crabgrass, Large [10, 25]: 100
Plant response rating (scale 0 to 100), Morningglory ([11]; Postemergence, 16 g ai/ha): 40
Morningglory plant response rating [11, 20]: 25
Morningglory plant response rating [11, 21]: 25
Plant response rating, Morningglory [11, 22]: 35
Plant response rating (scale 0 to 100), Morningglory ([11]; Preemergence, 125 g ai/ha): 45
Plant response rating, Morningglory [11, 23]: 0
Plant response rating, Morningglory [11, 24]: 0
Plant response rating, Morningglory [11, 25]: 35
Plant response rating (scale 0 to 100), Ragweed ([12]; Postemergence, 16 g ai/ha): 35
Ragweed plant response rating [12, 20]: 50
Ragweed plant response rating [12, 21]: 70
Plant response rating, Ragweed [12, 22]: 60
Plant response rating (scale 0 to 100), Ragweed ([12]; Preemergence, 125 g ai/ha): 95
Plant response rating, Ragweed [12, 23]: 35
Plant response rating, Ragweed [12, 24]: 50
Plant response rating, Ragweed [12, 25]: 55
Plant response rating (scale 0 to 100), Soybean (soybean (Glycine max); Postemergence, 16 g ai/ha): 20
Soybean plant response rating (soybean (Glycine max); [20]): 40
Soybean plant response rating (soybean (Glycine max); [21]): 45
Plant response rating, Soybean (soybean (Glycine max); [22]): 70
Plant response rating (scale 0 to 100), Soybean (soybean (Glycine max); Preemergence, 125 g ai/ha): 95
Plant response rating, Soybean (soybean (Glycine max); [23]): 5
Plant response rating, Soybean (soybean (Glycine max); [24]): 35
Plant response rating, Soybean (soybean (Glycine max); [25]): 60
Plant response rating (scale 0 to 100), Waterhemp ([13]; Postemergence, 16 g ai/ha): 60
Waterhemp plant response rating [13, 20]: 70
Waterhemp plant response rating [13, 21]: 80
Plant response rating, Waterhemp [13, 22]: 85
Plant response rating (scale 0 to 100), Waterhemp ([13]; Preemergence, 125 g ai/ha): 98
Plant response rating, Waterhemp [13, 23]: 95
Plant response rating, Waterhemp [13, 24]: 100
Plant response rating, Waterhemp [13, 25]: 98
Plant response rating (scale 0 to 100), Wheat ([14]; Postemergence, 16 g ai/ha): 0
Wheat plant response rating [14, 20]: 10
Wheat plant response rating [14, 21]: 5
Plant response rating, Wheat [14, 22]: 10
Plant response rating (scale 0 to 100), Wheat ([14]; Preemergence, 125 g ai/ha): 15
Plant response rating, Wheat [14, 23]: 0
Plant response rating, Wheat [14, 24]: 0
Plant response rating, Wheat [14, 25]: 0
Plant response rating (scale 0 to 100), Nutsedge, Yellow ([15]; Postemergence, 16 g ai/ha): 0
Nutsedge, Yellow plant response rating [15, 20]: 0
Nutsedge, Yellow plant response rating [15, 21]: 10
Plant response rating, Nutsedge, Yellow [15, 22]: 10
Plant response rating (scale 0 to 100), Nutsedge, Yellow ([15]; Preemergence, 125 g ai/ha): 45
Plant response rating, Nutsedge, Yellow [15, 23]: 0
Plant response rating, Nutsedge, Yellow [15, 24]: 0
Plant response rating, Nutsedge, Yellow [15, 25]: 10

Cc1cc(-c2c(F)cccc2Oc2ncc(Br)cn2)on1 [Compound 230]
Plant response rating, Barnyardgrass [1, 16]: 10
Plant response rating, Barnyardgrass [1, 17]: 60
Plant response rating, Barnyardgrass [1, 18]: 0
Barnyardgrass plant response rating [1, 19]: 70
Plant response rating, Corn (corn (Zea mays) [2]; [17]): 10
Plant response rating, Corn (corn (Zea mays) [2]; [18]): 0
Plant response rating, Foxtail, Giant [3, 16]: 60
Plant response rating, Foxtail, Giant [3, 17]: 70
Plant response rating, Foxtail, Giant [3, 18]: 0
Foxtail, Giant plant response rating [3, 19]: 90
Plant response rating, Pigweed [4, 16]: 90
Plant response rating, Pigweed [4, 17]: 90
Plant response rating, Pigweed [4, 18]: 60
Pigweed plant response rating [4, 19]: 100
Plant response rating, Wheat [5, 17]: 10
Plant response rating, Wheat [5, 18]: 0
Plant response rating (scale 0 to 100), Ryegrass, Italian ([6]; Postemergence, 16 g ai/ha): 0
Ryegrass, Italian plant response rating [6, 20]: 0
Ryegrass, Italian plant response rating [6, 21]: 5
Plant response rating, Ryegrass, Italian [6, 22]: 5
Plant response rating (scale 0 to 100), Corn (corn (Zea mays) [7]; Postemergence, 16 g ai/ha): 0
Corn plant response rating (corn (Zea mays) [7]; [20]): 0
Corn plant response rating (corn (Zea mays) [7]; [21]): 0
Plant response rating, Corn (corn (Zea mays) [7]; [22]): 15
Plant response rating (scale 0 to 100), Galium ([8]; Postemergence, 16 g ai/ha): 80
Galium plant response rating [8, 20]: 85
Galium plant response rating [8, 21]: 85
Plant response rating, Galium [8, 22]: 95
Plant response rating (scale 0 to 100), Lambsquarters ([9]; Postemergence, 16 g ai/ha): 55
Lambsquarters plant response rating [9, 20]: 70
Lambsquarters plant response rating [9, 21]: 80
Plant response rating, Lambsquarters [9, 22]: 70
Plant response rating (scale 0 to 100), Crabgrass, Large ([10]; Postemergence, 16 g ai/ha): 0
Crabgrass, Large plant response rating [10, 20]: 5
Crabgrass, Large plant response rating [10, 21]: 5
Plant response rating, Crabgrass, Large [10, 22]: 10
Plant response rating (scale 0 to 100), Morningglory ([11]; Postemergence, 16 g ai/ha): 5
Morningglory plant response rating [11, 20]: 5
Morningglory plant response rating [11, 21]: 5
Plant response rating, Morningglory [11, 22]: 70
Plant response rating (scale 0 to 100), Ragweed ([12]; Postemergence, 16 g ai/ha): 30
Ragweed plant response rating [12, 20]: 40
Ragweed plant response rating [12, 21]: 55
Plant response rating, Ragweed [12, 22]: 55
Plant response rating (scale 0 to 100), Soybean (soybean (Glycine max); Postemergence, 16 g ai/ha): 50
Soybean plant response rating (soybean (Glycine max); [20]): 55
Soybean plant response rating (soybean (Glycine max); [21]): 65
Plant response rating, Soybean (soybean (Glycine max); [22]): 85
Plant response rating (scale 0 to 100), Waterhemp ([13]; Postemergence, 16 g ai/ha): 65
Waterhemp plant response rating [13, 20]: 70
Waterhemp plant response rating [13, 21]: 75
Plant response rating, Waterhemp [13, 22]: 80
Plant response rating (scale 0 to 100), Wheat ([14]; Postemergence, 16 g ai/ha): 5
Wheat plant response rating [14, 20]: 5
Wheat plant response rating [14, 21]: 5
Plant response rating, Wheat [14, 22]: 15
Plant response rating (scale 0 to 100), Nutsedge, Yellow ([15]; Postemergence, 16 g ai/ha): 0
Nutsedge, Yellow plant response rating [15, 20]: 0
Nutsedge, Yellow plant response rating [15, 21]: 5
Plant response rating, Nutsedge, Yellow [15, 22]: 5
